Data on 11 compounds can be found in ChEMBL document CHEMBL1124195, “Substituted benzamides with conformationally restricted side chains. 2. Indolizidine derivatives as central dopamine receptor antagonists” (J Med Chem, 1988).

The source made the active and inactive calls. The rule behind the calls is not given here.

The subject of test [1] is Rattus norvegicus. As to the kind of experiment: Evaluated for lowest active dose (LAD) for (gastric prokinetic activity) stimulation of intragastric pressure (IGP) in rats (sc). The class given is functional.
The test system of another test is Mus musculus. The experiment in a line: Evaluated for the antagonism of apomorphine-induced climbing behavior in mice (sc). The format is functional.
Test [2] concerns Rattus norvegicus. As to the kind of experiment: Evaluated for lowest active dose (LAD) for (gastric prokinetic activity) stimulation of intragastric pressure (IGP) in rats (sc); Inactive (0.5-10 mg/kg). The class given is functional, organism-based.
Test [3] has as its system Rattus norvegicus. As to the kind of experiment: Effective concentration for inhibition of amphetamine-induced locomotor activity in rats 4 hr after dosing administered intraperitoneally. The class given is functional. Conditions: ip.
Test [4] concerns Rattus norvegicus. As to the kind of experiment: Compound was tested for inducing catalepsy 4 hr after dose administered intraperitoneally. The class given is functional. The settings on record: ip.
The next test concerns the target D(2) dopamine receptor (Rattus norvegicus, UniProt P61169). The experiment in a line: Binding affinity against Dopamine receptor D2 at 10e-3 M concentration using [3H]spiperone in rat striatal tissue.
Another test addresses D(1A) dopamine receptor (Rattus norvegicus, UniProt P18901). As to the kind of experiment: Binding affinity against Dopamine receptor D1 at 10e-3 M concentration using cis-[3H]flupenthixol in rat striatal tissue.

Sequence of D(1A) dopamine receptor (P18901 whole entry): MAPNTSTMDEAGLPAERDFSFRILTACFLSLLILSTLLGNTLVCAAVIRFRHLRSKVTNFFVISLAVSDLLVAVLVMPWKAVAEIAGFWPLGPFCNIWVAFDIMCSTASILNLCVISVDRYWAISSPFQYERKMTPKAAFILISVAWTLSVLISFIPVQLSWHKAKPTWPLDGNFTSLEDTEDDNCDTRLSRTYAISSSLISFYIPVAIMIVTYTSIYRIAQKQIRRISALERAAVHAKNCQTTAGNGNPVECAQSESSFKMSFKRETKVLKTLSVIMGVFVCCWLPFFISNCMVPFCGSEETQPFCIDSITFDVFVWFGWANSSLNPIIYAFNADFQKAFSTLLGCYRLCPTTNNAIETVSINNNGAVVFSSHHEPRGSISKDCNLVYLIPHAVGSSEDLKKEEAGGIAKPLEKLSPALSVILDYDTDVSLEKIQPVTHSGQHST
Sequence of D(2) dopamine receptor (P61169 whole entry): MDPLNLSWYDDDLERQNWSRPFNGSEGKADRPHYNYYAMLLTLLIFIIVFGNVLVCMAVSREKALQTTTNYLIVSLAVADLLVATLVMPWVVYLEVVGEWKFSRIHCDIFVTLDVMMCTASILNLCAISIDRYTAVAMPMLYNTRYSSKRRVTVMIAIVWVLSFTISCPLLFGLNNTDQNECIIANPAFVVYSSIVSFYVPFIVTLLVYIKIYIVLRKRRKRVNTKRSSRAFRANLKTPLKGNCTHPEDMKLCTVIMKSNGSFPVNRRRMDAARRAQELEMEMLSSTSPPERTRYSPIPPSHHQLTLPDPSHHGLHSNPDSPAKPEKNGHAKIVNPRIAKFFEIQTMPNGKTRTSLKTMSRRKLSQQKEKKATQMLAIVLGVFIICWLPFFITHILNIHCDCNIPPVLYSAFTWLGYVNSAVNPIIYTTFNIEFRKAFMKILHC

`CCN(CC)CCNC(=O)c1cc(Cl)c(N)cc1OC` [METOCLOPRAMIDE] came in with an LAD with Rattus norvegicus [1] of 1 mg/kg. Besides, the ED50 (usually the dose that gives a 50% effect, or the effect in half of the subjects) in the test with Mus musculus amounted to 0.75 mg/kg.
For `COc1cc(N)c(Cl)cc1C(=O)NC1CC(C)N2CC(c3ccccc3)CC2C1` (centres undefined), the LAD entry in the test on Rattus norvegicus [2] is “inactive”. The compound also came in with an ED50 in the test on Mus musculus of 0.4 mg/kg.
As for `COc1cc(N)c(Cl)cc1C(=O)NC1CCN2C[C@H](c3ccccc3)CC2C1` (some centres undefined), the LAD in the test on Rattus norvegicus [1] came out at 1 mg/kg. In the test on Mus musculus, this compound came in with an ED50 above 3 mg/kg.
Regarding `COc1cc(N)c(Cl)cc1C(=O)NC1CCN2C[C@H](c3ccccc3)CCC2C1` (some centres undefined), the LAD entry with Rattus norvegicus [2] was “inactive”. In addition, the ED50 in the test with Mus musculus was above 1 mg/kg.
The compound `COc1cc(N)c(Cl)cc1C(=O)NC1CCN(Cc2ccccc2)CC1` [CLEBOPRIDE] showed an LAD with Rattus norvegicus [1] of 1 mg/kg. The 50% effect level in the test on Mus musculus (ED50) was put at a dose of 0.037 mg/kg.
As for `COc1cc(N)c(Cl)cc1C(=O)NC1CCN2C[C@@H](c3ccccc3)CCC2C1` (some centres undefined), the LAD result in the test with Rattus norvegicus [2] was “inactive”. For the same compound, in the test on Mus musculus, the ED50 is above 1 mg/kg.
On the same counts, the results for `COc1cc(N)c(Cl)cc1C(=O)NC1CCN2C[C@@H](c3ccccc3)CC2C1` (some centres undefined) are “inactive” and 0.024 mg/kg.
Compound `COc1cc(N)c(Cl)cc1C(=O)NC1CCN2CC(c3ccccc3F)CC2C1` (centres undefined) displayed a median effective dose (ED50) with Mus musculus of 0.03 mg/kg.
`COc1cc(N)c(Cl)cc1C(=O)NC1CCN2CC(C)(c3ccccc3)CC2C1` (centres undefined): the results for the ED50 in the test on Rattus norvegicus [3], in the test with Rattus norvegicus [4] and in the test with Mus musculus were 0.02 mg/kg, 3.4 mg/kg and 0.078 mg/kg, respectively. Moreover, in the test with Rattus norvegicus [2], the LAD result was “inactive”. The Ki (usually the equilibrium dissociation constant of an inhibitor or competing ligand from its target) is 250 nM at D(2) dopamine receptor and above 10000 nM on D(1A) dopamine receptor.
Regarding `COc1cc(N)c(Cl)cc1C(=O)NC1CCN2CC(c3ccccc3)(c3ccccc3)CC2C1` (centres undefined), in the test on Rattus norvegicus [2], the LAD result is “inactive”. The compound also returned a 50% effective dose (ED50) with Mus musculus above 1 mg/kg.
With `COc1cc(N)c(Cl)cc1C(=O)NC1CCN2CC(c3ccc(F)cc3)CC2C1` (centres undefined), the ED50 in the test on Mus musculus was found to be 0.015 mg/kg.
